US20220040253A1, “Agonists of Human Kisspeptin Receptor for Modulating Sexual Desire” (Université de Liège, priority 2019, published 2022)
“Also recorded” adds a separate entry of the source. No end group written: not given here.

Legend:
[1] = system: female mice; assay: Mate preference test (three-compartment box, preference score); format: in vivo, mouse
Experimental: (§1) Unless otherwise stated, females were ovariectomized in adulthood (>8 weeks of age) under general anesthesia after either subcutaneous (sc) injections of ketamine (80 mg kg^−1 per mouse) and medetomidine (Domitor, Pfizer, 1 mg kg^−1 per mouse) or under 5% isoflurane, in order to control for endogenous hormone concentrations and to prevent pregnancies upon repeated testing. At the same time, all females received a 5 mm-long Silastic capsule (inner diameter: 1.57 mm; outer diameter: 2.41 mm) containing crystalline 17β-estradiol (diluted 1:1 with cholesterol) subcutaneously in the neck. The dose of E2 (E8875, Sigma) was based on a previous study^62 showing that this treatment leads to estradiol levels similar to mice in estrus. At the end of surgery, females under ketamine/medetomidine anesthesia received a sc injection of atipamezole (Antisedan, Pfizer, 4 mg kg^−1 per mouse) to antagonize medetomidine-induced effects and accelerate recovery. In order to induce sexual receptivity at the day of testing, all females received a subcutaneous injection with progesterone (500 μg, P0130, Sigma) 3 h before the onset of the behavioral test, unless stated otherwise (for overview of all the different hormone treatments, see Table 1).
(§2) Kisspeptin-10 (Kp-10) was synthesized in Strasbourg, France (Sequence: Tyr-Asn-Trp-Asn-Ser-Phe-Gly-Leu-Arg-Tyr-NH2, NeoMPS; weight=25.7 mg). To determine whether kisspeptin stimulated female sexual behavior in wildtype C57BL/6J mice, females received a sc injection of Kp-10 at the dose of 0.52 μg kg^−1 (injection volume 100 μl) 2h before the lordosis test. Each animal was used as its own control, i.e. the animal was injected one day with Kp-10 and the other day with saline. Females were not injected with progesterone in this particular experiment. Injections were separated by at least 3 days.
Two hours before mate preference test, female mice received a single sc injection of GnRH (0.025 mg kg^−1, Polypeptide Laboratories France SAS, SC087).
S-nitroso-N-acetyl-DL-Penicillamine (SNAP) (N398-Sigma) is a NO donor. […]
To assess mate preferences shown in response to auditory and olfactory stimuli, we used a box (60 cm long×30 cm high×13 cm wide) that was divided into three compartments using perforated opaque partitions. […] The time the subject spent poking her nose through the holes of the partition or actively sniffing the bottom of the partition in front of the female versus male stimulus animal was recorded. A preference score was calculated by dividing the time spent investigating the male compartment minus the time spent investigating the female compartment by the total time spent investigating both compartments. […]

[2] = system: female mice; assay: Lordosis test without photostimulation (lordosis quotient); format: in vivo, mouse
Experimental: as §1, with “1). […]” for “1).”
as §2, with “days. […]” for “days.”
Females were subjected to weekly lordosis tests in a Plexiglas aquarium (37 cm long×17 cm high×21 cm wide). A sexually experienced male was placed alone in the aquarium and allowed to adapt for 15 min. Subsequently, 3 h after receiving a subcutaneous progesterone injection (500 μg, P0130, Sigma) to induce behavioral estrus, the lordosis responses of the female to the mounts of the stimulus male were recorded. The test lasted until the female received 10 mounts or 10 min had elapsed. For the first experiment (mating-induced Fos activation) ovary intact females were paired with males during 30 minutes. […] Before each experimental condition (drug injection, cell ablation, optogenetic stimulation), all females were subjected to at least three lordosis tests (with progesterone) in order to acquire sufficient sexual experience and thus a significant LQ. Tests were performed during the dark phase of the light cycle (5 h after lights out; for details, see^67). For all details on the different hormone treatments (estradiol versus estradiol+progesterone), see Table 1.

[3] = system: human female patients diagnosed with HSDD; assay: Brain activation by BOLD MRI while watching erotic pictures; format: in vivo; conditions: single sc injection 6.4 nmol/kg; scan 30 minutes after injection; versus saline session
Experimental: 20 human female patients diagnosed with HSDD receive either a single subcutaneous (sc) injection of kisspeptin-54 (SEQ ID NO: 17) at a dose of 6.4 nmol/kg of body weight or a sc injection of a saline (i.e. control). The sexual desire of the patients is measured by determining their brain activation using magnetic resonance imaging (MRI) with the blood-oxygenation-level-dependent (BOLD) technique to identify and quantify brain regions associated with visually evoked sexual arousal in women. All female patients are subjected to two sessions on separate days with at least 1 month in between the sessions to act as their own control. They receive in one session kisspeptin-54 and in the other one saline, the order will be randomized. Female patients are positioned into the MRI scanner 30 minutes after the sc injection and three dimensional images are taken of the brain when watching a series of erotic pictures as well as more neutral pictures to serve as control condition using an event-related design. The task is followed by an anatomical scan in which high resolution T1-weighted images are taken to determine the anatomical boundaries of the activation observed during the visual task.

[4] = system: human female patients diagnosed with HSDD; assay: Vaginal photoplethysmography (vaginal blood flow) while watching erotic or neutral images; format: in vivo; conditions: single sc injection 6.4 nmol/kg
Experimental: 20 human female patients diagnosed with HSDD receive either a single subcutaneous (sc) injection of kisspeptin-54 (SEQ ID NO: 17) at a dose of 6.4 nmol/kg of body weight or a sc injection of saline (i.e. control). The sexual desire of the patients is measured using vaginal photoplethysmography, which has been used to assess female genital arousal. It consists of a tampon-sized acrylic device containing a light emitting diode and a phototransistor to detect light to measure vaginal blood flow with increased sexual desire leading to increased vaginal blood flow. The sexual desire of the patients is scored starting 15 minutes after administration of sc kisspeptin or saline when watching either erotic images or neutral images. […] Any effects of kisspeptin on sexual desire disappear by 4 h after the injection.

GnRH: GnRH from Polypeptide Laboratories France SAS, SC087 (QHWSYGLRPG; Gonadoliberin-1; UniProt P01148 24-33, looked up) [reference compound]
male-directed preference (preference score) ([1]; GnRH::Cre, Dicer loxP/loxP females (OVX+E), single sc injection 0.025 mg kg^-1, P=0.01, FIG. 9a): induced a male-directed preference; also recorded: restored this behavior
lordosis behavior ([2]; Kiss-/- (OVX+E) females, single injection, P=0.65, FIG. 9c): failed to stimulate lordosis behavior
lordosis behavior ([2]; nNOS-/- (OVX+E) females, sc injection, P=0.19, FIG. 11c): failed to restore lordosis behavior; also recorded: failed to stimulate lordosis behavior

kisspeptin-54: human kisspeptin-54, SEQ ID NO: 17, amino acids 68 to 121 of NP_002247.3 (GTSLSPPPESSGSPQQPGLSAPHSRQIPAPQGAVLVQREKDLPNYNWNSFGLRF; listed as Homo sapiens)
brain activation when watching the images (BOLD MRI) [3]: show increased brain activation
time by which effects on sexual desire disappear after the injection [4]: ≤ 4 h
vaginal blood flow when watching neutral images ([4]; scored from 15 minutes after administration): not when watching neutral images
vaginal blood flow when watching erotic images ([4]; scored from 15 minutes after administration, versus saline): show increased vaginal blood flow

Tyr-Asn-Trp-Asn-Ser-Phe-Gly-Leu-Arg-Tyr-NH2 (YNWNSFGLRY-NH2) [Kp-10, Kisspeptin-10 synthesized in Strasbourg (NeoMPS), the decapeptide injected in mice]
male-directed preference (preference score) ([1]; GnRH::Cre, Dicer loxP/loxP females (OVX+E+P), sc injection, P=0.38, FIG. 9a): failed to elicit a male-directed preference
male-directed preference (preference score) ([1]; Kiss-/- (OVX+E+P) females, single sc injection 0.52 μg kg^-1, P<0.001, FIG. 1b): induced a very strong preference for the male; also recorded: triggered a male-directed preference
male-directed preference (preference score) ([1]; KissIC Cre+ females (OVX+E+P) after AAV-Casp3 ablation of RP3V kisspeptin neurons, single sc injection, P=0.041, FIG. 1e): induced a male-directed preference; also recorded: sufficient to induce a male-directed preference
lordosis behavior ([2]; Kiss-/- (OVX+E+P) females with lordosis deficits, single sc injection, FIG. 4d): induced lordosis behavior; also recorded: could be reversed
lordosis behavior ([2]; WT C57BL/6J OVX+E females (no progesterone), sc 0.52 μg/kg 2 h before test, P<0.001, FIG. 4b): robustly stimulated lordosis behavior
lordosis behavior ([2]; WT C57Bl6 (OVX+E+P) females, intracerebroventricular 10.4 ng/kg 1 h before test, P=0.012, FIG. 6): stimulates lordosis behavior; also recorded: also stimulated lordosis behavior
lordosis behavior ([2]; nNOS-/- (OVX+E+P) females, sc injection, P=0.56, FIG. 11c): failed to restore lordosis behavior
lordosis behavior ([2]; nNOS-/- (OVX+E+P) females, sc injection, P=0.56, FIG. 11c, listed as KP-10): failed to stimulate lordosis behavior
